Measured values reported in PubChem BioAssay AID1918934 (Molecular Pharmacology Branch, DTP, NCI, 2023).
Several values for one entry are separate records, joined by “and”; a condition that tells them apart may be missing. Equal entries are not always repeated.

Tested on: 292921-168-R-J2-PDC complex spheroid viability
Assay: Anticancer human tumor 292921-168-R-J2-PDC patient-derived pancreatic carcinoma cell line growth inhibition
Conditions: for viability, T/C: stronger effect = lower value
How it was run: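 Multicellular complex spheroids of tumor cells with human endothelial cells (HUVEC) and mesenchymal stem cells; the LSD1 inhibitor iadademstat was combined with standard-of-care or investigational agents. Top concentration at or near clinical Cmax, half-log dilutions; final DMSO ≤0.25%.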

[1] = curve of first compound, second compound 0.1 µM
[2] = curve of first compound, second compound 0.316 µM
[3] = curve of first compound, second compound 1 µM
[4] = curve of first compound, second compound 3.16 µM
[5] = curve of first compound, second compound 10 µM
[6] = second compound 0.1 µM, first compound 0.000316 µM
[7] = second compound 0.1 µM, first compound 0.001 µM
[8] = second compound 0.1 µM, first compound 0.00316 µM
[9] = second compound 0.1 µM, first compound 0.01 µM
[10] = second compound 0.1 µM, first compound 0.0316 µM
[11] = second compound 0.1 µM, first compound 0.1 µM
[12] = second compound 0.316 µM, first compound 0.000316 µM
[13] = second compound 0.316 µM, first compound 0.001 µM
[14] = second compound 0.316 µM, first compound 0.00316 µM
[15] = second compound 0.316 µM, first compound 0.01 µM
[16] = second compound 0.316 µM, first compound 0.0316 µM
[17] = second compound 0.316 µM, first compound 0.1 µM
[18] = second compound 1 µM, first compound 0.000316 µM
[19] = second compound 1 µM, first compound 0.001 µM
[20] = second compound 1 µM, first compound 0.00316 µM
[21] = second compound 1 µM, first compound 0.01 µM
[22] = second compound 1 µM, first compound 0.0316 µM
[23] = second compound 1 µM, first compound 0.1 µM
[24] = second compound 3.16 µM, first compound 0.000316 µM
[25] = second compound 3.16 µM, first compound 0.001 µM
[26] = second compound 3.16 µM, first compound 0.00316 µM
[27] = second compound 3.16 µM, first compound 0.01 µM
[28] = second compound 3.16 µM, first compound 0.0316 µM
[29] = second compound 3.16 µM, first compound 0.1 µM
[30] = second compound 10 µM, first compound 0.000316 µM
[31] = second compound 10 µM, first compound 0.001 µM
[32] = second compound 10 µM, first compound 0.00316 µM
[33] = second compound 10 µM, first compound 0.01 µM
[34] = second compound 10 µM, first compound 0.0316 µM
[35] = second compound 10 µM, first compound 0.1 µM
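Further: seven day compound exposure before luminescent viability read.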
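Wherever viability, T/C is given: 100% = DMSO vehicle control wells.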

Compound `CC[C@@]1(O)C(=O)OCc2c1cc1n(c2=O)Cc2cc3c(CN(C)C)c(O)ccc3nc2-1` + NC1CC1c1ccc(-c2cccc(O)c2)cc1 has an IC50 [1] of 3.22 nM, an IC50 [2] of 2.16 nM and an IC50 [3] of 1.63 nM. It also gave an IC50 [4] of 2.15 nM, an IC50 [5] of 0.375 nM and a viability, T/C [6] of 81.3%. It also gave a viability, T/C [7] of 78.9%, a viability, T/C [8] of 48.2% and a viability, T/C [9] of 21.6%. For the same compound, the viability, T/C [10] was 8.58%, the viability, T/C [11] was 3.36% and the viability, T/C [12] was 72.8%. For the same compound, the viability, T/C [13] was 65.3%, the viability, T/C [14] was 41.9% and the viability, T/C [15] was 21%. It also gave a viability, T/C [16] of 8.47%, a viability, T/C [17] of 3.37% and a viability, T/C [18] of 61.8%. The viability, T/C [19] was 56.7%, the viability, T/C [20] was 41.1% and the viability, T/C [21] was 21.3%. It also gave a viability, T/C [22] of 8.54%, a viability, T/C [23] of 4.7% and a viability, T/C [24] of 66.4%. The viability, T/C [25] was 61.9%, the viability, T/C [26] was 44.2% and the viability, T/C [27] was 17.8%. For the same compound, the viability, T/C [28] was 8.75%, the viability, T/C [29] was 3.88% and the viability, T/C [30] was 50.7%. The viability, T/C [31] was 46.7%, the viability, T/C [32] was 37.4% and the viability, T/C [33] was 20.5%. It also gave a viability, T/C [34] of 9.34% and a viability, T/C [35] of 4.4%.
Compound `CCN(c1cc(-c2ccc(CN3CCOCC3)cc2)cc(C(=O)NCc2c(C)cc(C)[nH]c2=O)c1C)C1CCOCC1` + NC1CC1c1ccc(-c2cccc(O)c2)cc1 has an IC50 [1] of 1080 nM, an IC50 [2] of 1020 nM and an IC50 [3] of 1100 nM. For the same compound, the IC50 [4] was 1070 nM, the IC50 [5] was 763 nM and the viability, T/C (second compound 0.1 µM, first compound 0.00949 µM) was 77.2%. The viability, T/C (second compound 0.1 µM, first compound 0.03 µM) was 79.2%, the viability, T/C (second compound 0.1 µM, first compound 0.0949 µM) was 81.9% and the viability, T/C (second compound 0.1 µM, first compound 0.3 µM) was 77.1%. The viability, T/C (second compound 0.1 µM, first compound 0.949 µM) was 53.5%, the viability, T/C (second compound 0.1 µM, first compound 3 µM) was 22.1% and the viability, T/C (second compound 0.316 µM, first compound 0.00949 µM) was 69.5%. The viability, T/C (second compound 0.316 µM, first compound 0.03 µM) was 82.7%, the viability, T/C (second compound 0.316 µM, first compound 0.0949 µM) was 77.5% and the viability, T/C (second compound 0.316 µM, first compound 0.3 µM) was 71.7%. It also gave a viability, T/C (second compound 0.316 µM, first compound 0.949 µM) of 51.9%, a viability, T/C (second compound 0.316 µM, first compound 3 µM) of 21.7% and a viability, T/C (second compound 1 µM, first compound 0.00949 µM) of 68.6%. The viability, T/C (second compound 1 µM, first compound 0.03 µM) was 72%, the viability, T/C (second compound 1 µM, first compound 0.0949 µM) was 68.8% and the viability, T/C (second compound 1 µM, first compound 0.3 µM) was 68.4%. It also gave a viability, T/C (second compound 1 µM, first compound 0.949 µM) of 54.5%, a viability, T/C (second compound 1 µM, first compound 3 µM) of 19.4% and a viability, T/C (second compound 3.16 µM, first compound 0.00949 µM) of 70.7%. For the same compound, the viability, T/C (second compound 3.16 µM, first compound 0.03 µM) was 75.3%, the viability, T/C (second compound 3.16 µM, first compound 0.0949 µM) was 70.2% and the viability, T/C (second compound 3.16 µM, first compound 0.3 µM) was 64.5%. The viability, T/C (second compound 3.16 µM, first compound 0.949 µM) was 54.1%, the viability, T/C (second compound 3.16 µM, first compound 3 µM) was 22.3% and the viability, T/C (second compound 10 µM, first compound 0.00949 µM) was 62.7%. The viability, T/C (second compound 10 µM, first compound 0.03 µM) was 62.5%, the viability, T/C (second compound 10 µM, first compound 0.0949 µM) was 62.5% and the viability, T/C (second compound 10 µM, first compound 0.3 µM) was 60.2%. For the same compound, the viability, T/C (second compound 10 µM, first compound 0.949 µM) was 47.6% and the viability, T/C (second compound 10 µM, first compound 3 µM) was 21.8%.
Compound `CC(C)CC(NC(=O)CNC(=O)c1cc(Cl)ccc1Cl)B1OC(=O)CC(CC(=O)O)(C(=O)O)O1` (configuration not stated) + NC1CCC(NC2CC2c2ccccc2)CC1 has an IC50 [1] of 4.8 nM, an IC50 [2] of 4.28 nM and an IC50 [3] of 4.66 nM. For the same compound, the IC50 [4] was 4.25 nM, the IC50 [5] was 4.24 nM and the viability, T/C [6] was 75.8%. The viability, T/C [7] was 69.4%, the viability, T/C [8] was 70.9% and the viability, T/C [9] was 13.4%. For the same compound, the viability, T/C [10] was 2.33%, the viability, T/C [11] was 0.79% and the viability, T/C [12] was 60.9%. The viability, T/C [13] was 70.9%, the viability, T/C [14] was 61.9% and the viability, T/C [15] was 16.1%. The viability, T/C [16] was 2.1%, the viability, T/C [17] was 0.69% and the viability, T/C [18] was 63.8%. For the same compound, the viability, T/C [19] was 73%, the viability, T/C [20] was 66.7% and the viability, T/C [21] was 17.2%. For the same compound, the viability, T/C [22] was 2.39%, the viability, T/C [23] was 0.76% and the viability, T/C [24] was 54.9%. It also gave a viability, T/C [25] of 67%, a viability, T/C [26] of 63.5% and a viability, T/C [27] of 15.9%. The viability, T/C [28] was 1.7%, the viability, T/C [29] was 0.63% and the viability, T/C [30] was 58.6%. For the same compound, the viability, T/C [31] was 69%, the viability, T/C [32] was 63.1% and the viability, T/C [33] was 11.7%. The viability, T/C [34] was 1.43% and the viability, T/C [35] was 0.5%.
For `Cn1ncnc1C1c2n[nH]c(=O)c3cc(F)cc(c23)NC1c1ccc(F)cc1` (configuration not stated) + NC1CCC(NC2CC2c2ccccc2)CC1, the IC50 [1] was > 100 nM, the IC50 [2] was 81.4 nM and the IC50 [3] was > 100 nM. For the same compound, the IC50 [4] was 28.4 nM, the IC50 [5] was > 100 nM and the viability, T/C [6] was 68.7%. The viability, T/C [7] was 69%, the viability, T/C [8] was 64.6% and the viability, T/C [9] was 66.7%. The viability, T/C [10] was 66.6%, the viability, T/C [11] was 53.4% and the viability, T/C [12] was 66.6%. The viability, T/C [13] was 60.4%, the viability, T/C [14] was 62.1% and the viability, T/C [15] was 52.8%. For the same compound, the viability, T/C [16] was 54.2%, the viability, T/C [17] was 49.1% and the viability, T/C [18] was 67.6%. It also gave a viability, T/C [19] of 60.3%, a viability, T/C [20] of 54.9% and a viability, T/C [21] of 52.9%. It also gave a viability, T/C [22] of 47.1%, a viability, T/C [23] of 55.7% and a viability, T/C [24] of 57.7%. It also gave a viability, T/C [25] of 57.1%, a viability, T/C [26] of 58.6% and a viability, T/C [27] of 53%. The viability, T/C [28] was 46.8%, the viability, T/C [29] was 46.6% and the viability, T/C [30] was 59%. It also gave a viability, T/C [31] of 60.4%, a viability, T/C [32] of 60.8% and a viability, T/C [33] of 57%. It also gave a viability, T/C [34] of 50.4% and a viability, T/C [35] of 54.3%.
`CCN(c1cc(-c2ccc(CN3CCOCC3)cc2)cc(C(=O)NCc2c(C)cc(C)[nH]c2=O)c1C)C1CCOCC1` was tested, and the viability, T/C (compound 0.00949 µM) was 100% and 99.5%, the viability, T/C (compound 0.03 µM) was 115% and 103% and the viability, T/C (compound 0.0949 µM) was 99%. For the same compound, the viability, T/C (compound 0.3 µM) was 85.1% and 80.7%, the viability, T/C (compound 0.949 µM) was 63.7% and 67.6% and the viability, T/C (compound 3 µM) was 22.2% and 24.3%. The IC50 (curve of compound) was 1350 nM and 1460 nM.
